pIC50: −log10 of the molar value. “Also recorded” adds a separate entry of the source.
Columns and labels:
[1] = target: T1, C. difficile full-length toxin TcdB (Clostridioides difficile, UniProt P18177); test: cell-based
T1 construct: C. difficile full-length toxins (TcdA or TcdB); purchased EMD Millipore 616377

[2] = test system: C. difficile toxin (TcdA and TcdB, ~1:1); test: Murine C. difficile toxin model (intrarectal toxin); format: in vivo, C57BL/6 mice; conditions: for IL-1β (% Inhibition) / MPO (% Inhibition): murine C. difficile toxin model, PO, 50 mg/kg body weight
C. difficile strain 630 = format: in vivo, Golden Syrian hamsters
[3] = target: T2, recombinant glucosyltransferase domain of C. difficile Toxin B/TcdB (Clostridioides difficile, UniProt P18177); test: biochemical
T2 construct: 6-His (C); purchased R&D Systems 6246-GT

C. difficile = format: in vivo, C57/BL6 mice; conditions: relapse model; for weight loss, days 8-9 after infection: PO, vancomycin 20 mg/kg once per day for five days
[4] = Plasma concentrations in the murine C. difficile toxin model (LC/MS); format: in vivo; conditions: mice, over four hours
Protocol: We monitored the plasma concentrations of Example 6a following the IR, PO and IP administrations in the murine C. difficile toxin model (Example 63). Plasma concentrations of Example 6a were determined with the use of high pressure liquid chromatography (HPLC) and mass spectrometry (MS) following the administration of Example 6a. Plasma concentration curve of Example 6a was plotted over four hours (FIG. 5). […] It is noted that reduction of the IL-1β and MPO levels as well as improved colon histopathology correlates with the plasma concentrations of Example 6a.
To determine plasma concentration of compounds, blood (˜200 μl) was drawn by retro-orbital bleed, and compound concentration was determined by liquid chromatography (LC)/mass spectrometry (MS)(AB Sciex API-3000 LC/MS/MS system).

[5] = oral (PO), 50 mg/kg, intrarectal toxin 12.5 μg
[6] = intraperitoneal (IP), 50 mg/kg, intrarectal toxin 12.5 μg
[7] = intrarectal (IR) co-administration with toxin (12.5 μg), 25 mg/kg, ~12.5 mg/kg, 4 hours

T1 sequence (P18177 2-2366 limits assumed): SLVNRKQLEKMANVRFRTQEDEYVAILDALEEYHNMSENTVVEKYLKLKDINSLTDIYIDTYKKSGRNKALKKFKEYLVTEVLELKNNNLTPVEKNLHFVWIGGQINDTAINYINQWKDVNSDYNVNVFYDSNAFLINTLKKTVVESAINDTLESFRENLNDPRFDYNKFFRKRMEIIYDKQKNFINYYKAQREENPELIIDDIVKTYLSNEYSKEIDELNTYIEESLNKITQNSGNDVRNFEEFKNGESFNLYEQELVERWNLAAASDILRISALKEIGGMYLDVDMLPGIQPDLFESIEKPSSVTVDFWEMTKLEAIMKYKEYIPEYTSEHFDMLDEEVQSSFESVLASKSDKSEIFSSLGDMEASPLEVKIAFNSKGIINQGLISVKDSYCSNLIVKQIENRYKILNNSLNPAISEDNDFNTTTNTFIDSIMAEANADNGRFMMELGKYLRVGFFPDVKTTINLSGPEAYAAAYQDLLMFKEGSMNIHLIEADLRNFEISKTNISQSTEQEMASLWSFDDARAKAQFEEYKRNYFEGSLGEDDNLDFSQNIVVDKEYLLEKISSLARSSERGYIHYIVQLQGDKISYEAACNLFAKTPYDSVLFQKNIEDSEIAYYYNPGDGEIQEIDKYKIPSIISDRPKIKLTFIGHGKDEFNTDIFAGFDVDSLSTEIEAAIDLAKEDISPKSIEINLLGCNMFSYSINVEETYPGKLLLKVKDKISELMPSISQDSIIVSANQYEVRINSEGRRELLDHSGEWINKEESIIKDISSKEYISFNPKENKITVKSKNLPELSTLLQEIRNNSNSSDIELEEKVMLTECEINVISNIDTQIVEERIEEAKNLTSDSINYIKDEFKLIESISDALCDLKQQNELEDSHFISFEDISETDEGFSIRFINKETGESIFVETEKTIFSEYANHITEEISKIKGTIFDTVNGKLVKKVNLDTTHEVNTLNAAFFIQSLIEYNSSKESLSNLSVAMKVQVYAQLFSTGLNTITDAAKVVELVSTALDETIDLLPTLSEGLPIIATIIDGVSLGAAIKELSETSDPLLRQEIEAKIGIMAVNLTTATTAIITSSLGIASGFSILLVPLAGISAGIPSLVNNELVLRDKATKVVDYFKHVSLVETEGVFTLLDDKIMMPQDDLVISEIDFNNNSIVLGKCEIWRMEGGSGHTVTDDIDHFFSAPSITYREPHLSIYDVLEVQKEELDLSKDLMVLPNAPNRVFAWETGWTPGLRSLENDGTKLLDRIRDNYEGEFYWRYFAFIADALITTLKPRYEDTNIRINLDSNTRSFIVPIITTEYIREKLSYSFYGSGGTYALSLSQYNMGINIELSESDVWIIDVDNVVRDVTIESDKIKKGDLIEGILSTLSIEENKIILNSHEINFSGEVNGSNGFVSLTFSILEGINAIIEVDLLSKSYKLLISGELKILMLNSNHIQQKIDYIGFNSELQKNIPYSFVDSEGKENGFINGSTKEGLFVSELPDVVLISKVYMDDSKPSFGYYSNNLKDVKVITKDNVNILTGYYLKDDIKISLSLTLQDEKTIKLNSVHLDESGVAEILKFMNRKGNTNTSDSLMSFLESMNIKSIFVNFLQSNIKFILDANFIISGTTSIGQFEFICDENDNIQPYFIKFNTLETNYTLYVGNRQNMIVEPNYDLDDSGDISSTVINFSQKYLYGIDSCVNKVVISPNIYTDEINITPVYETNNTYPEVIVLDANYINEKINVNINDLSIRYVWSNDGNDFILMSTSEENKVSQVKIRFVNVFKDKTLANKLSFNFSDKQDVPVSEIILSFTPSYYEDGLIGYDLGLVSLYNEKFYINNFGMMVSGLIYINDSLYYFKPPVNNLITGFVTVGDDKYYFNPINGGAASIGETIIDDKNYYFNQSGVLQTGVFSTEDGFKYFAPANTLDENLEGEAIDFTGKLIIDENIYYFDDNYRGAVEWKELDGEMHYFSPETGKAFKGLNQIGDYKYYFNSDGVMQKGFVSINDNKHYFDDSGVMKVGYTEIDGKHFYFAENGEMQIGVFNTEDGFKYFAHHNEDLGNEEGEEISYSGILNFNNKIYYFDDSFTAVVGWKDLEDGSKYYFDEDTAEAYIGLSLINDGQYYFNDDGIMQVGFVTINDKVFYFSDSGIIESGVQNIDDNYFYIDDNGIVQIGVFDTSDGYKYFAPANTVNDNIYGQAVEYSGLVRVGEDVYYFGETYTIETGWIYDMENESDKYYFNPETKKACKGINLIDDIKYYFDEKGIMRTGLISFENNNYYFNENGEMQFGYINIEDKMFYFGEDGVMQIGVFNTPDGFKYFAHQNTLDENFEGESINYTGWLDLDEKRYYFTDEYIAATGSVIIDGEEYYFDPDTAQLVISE
T2 sequence (P18177 1-543): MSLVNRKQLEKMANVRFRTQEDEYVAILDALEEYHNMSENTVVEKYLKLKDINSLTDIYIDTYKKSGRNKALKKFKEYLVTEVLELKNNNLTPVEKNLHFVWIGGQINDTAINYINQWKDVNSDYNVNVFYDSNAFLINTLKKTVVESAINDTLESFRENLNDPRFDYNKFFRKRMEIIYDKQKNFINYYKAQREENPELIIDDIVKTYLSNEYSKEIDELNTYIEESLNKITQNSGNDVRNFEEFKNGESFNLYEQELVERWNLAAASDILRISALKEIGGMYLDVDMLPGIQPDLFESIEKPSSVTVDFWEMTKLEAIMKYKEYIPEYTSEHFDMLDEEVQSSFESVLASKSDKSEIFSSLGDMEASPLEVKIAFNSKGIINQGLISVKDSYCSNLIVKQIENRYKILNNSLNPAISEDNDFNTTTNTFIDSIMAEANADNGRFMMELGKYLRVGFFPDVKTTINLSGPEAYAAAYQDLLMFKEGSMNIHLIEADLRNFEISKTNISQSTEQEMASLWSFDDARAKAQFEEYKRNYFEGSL

SMILES | pIC50 [1] | IL-1β (% Inhibition) [2] [%] | MPO (% Inhibition) [2] [%] | IL-1β in colon tissue [2, 5] | MPO in colon tissue [2, 5] | toxin effect on colon length [2, 5] | pIC50 [3] | mice that died/expired on Days 8-9 (C. difficile; 8 mice per group) | relapsing disease (C. difficile; 8 mice per group) | weight loss, days 8-9 after infection (C. difficile) | other results
O=C(Nc1ccc(C(F)(F)F)cn1)c1ccc(CN2C(=O)c3ccc(Cl)cc3NC(=O)[C@H]2Cc2ccccn2)cc1Cl [Example 5ae, (R)-2-Chloro-4-((8-chloro-2,5-dioxo-3-(pyridin-2-ylmethyl)-2,3-dihydro-1H-benzo[e][1,4]diazepin-4(5H)-yl)methyl)-N-(5-(trifluoromethyl)pyridin-2-yl)benzamide] | 6.00 to 7.00 | 81 | 79 | reduced the levels of IL-1β | reduced | reduced the C. difficile toxin-mediated effects on colon length | > 7.00 | none | prevention of relapsing disease | significantly reduced weight loss 8.0, 8.5 and 9.0 days after infection | survival until Day 10 (C. difficile strain 630; Example 5ae 50 mg/kg PO twice per day for 7 days): 70%; median survival time / protection from mortality (C. difficile strain 630; PO twice per day, Example 5ae 50 mg/kg 7 days, vancomycin 5 mg/kg 5 days): significantly improved the median survival time; mice euthanized due to body weight loss of >20% (C. difficile; Day 4, 8 mice per group): 1
COc1ccc(NC(=O)c2ccc(CN3C(=O)c4ccc(Cl)cc4NC(=O)[C@H]3Cc3ccccn3)cc2F)nc1 [Example 6a, (R)-4-((8-Chloro-2,5-dioxo-3-(pyridin-2-ylmethyl)-2,3-dihydro-1H-benzo[e][1,4]diazepin-4(5H)-yl)methyl)-2-fluoro-N-(5-methoxypyridin-2-yl)benzamide] | > 7.00 | 80 | 81 | decreased the C. difficile toxin-induced IL-1β; also recorded: reduced the levels of IL-1β; also recorded: reduced the concentrations of IL-1β | decreased; also recorded: reduced | reduced the C. difficile toxin-mediated effects on colon length; also recorded: effective in reducing the C. difficile toxin effects on colon length | > 7.00 | none | prevention of relapsing disease | significantly reduced weight loss 8.0, 8.5 and 9.0 days after infection | IL-1β in colon tissue [2, 6]: decreased the C. difficile toxin-induced IL-1β; also recorded: reduced the concentrations of IL-1β; MPO in colon tissue [2, 6]: decreased; also recorded: reduced; toxin effect on colon length [2, 6]: reduced the C. difficile toxin-mediated effects on colon length; also recorded: effective in reducing the C. difficile toxin effects on colon length; toxin effect on colon length [2, 7]: reduced the C. difficile toxin-mediated effects on colon length; toxin-induced IL-1β in colon tissue [2, 7]: decreased the C. difficile toxin-induced IL-1β; toxin-induced MPO in colon tissue [2, 7]: decreased; colon histopathology ([2]; oral (PO), intrarectal toxin 12.5 μg): prevention of tissue damage; also recorded: improved the colon histopathology; plasma concentration ([4]; IP administration, compared to IR): significantly higher plasma concentrations; plasma concentration ([4]; IR administration): low plasma concentrations; plasma concentration ([4]; PO administration, compared to IR): significantly higher plasma concentrations

Reference: patent US10669242B2 (priority 2016, dated 2020)
